Laboratory results: ChEMBL document CHEMBL3217655, “The development of quinoloneesters as novel antimalarial agents targeting the Plasmodium falciparum bc1protein complex” (Medchemcomm, 2012)

system: not listed separately; experiment: Inhibition of Plasmodium falciparum 3D7 cytochrome bc1 complex assessed as cytochrome c reduction by spectrophotometric analysis in presence of decylubiquinol; conditions: not given

**Q.** For `CCOC(=O)c1c[nH]c2cc(Cc3ccc(OC(F)(F)F)cc3)ccc2c1=O`, which EC50 is on record?
**A.** The EC50 was 1.3 nM.

**Q.** Which EC50 does the source give for `O=C1C(O)=C([C@H]2CC[C@H](c3ccc(Cl)cc3)CC2)C(=O)c2ccccc21` [ATOVAQUONE] here?
**A.** Its EC50 is 3 nM.

system: Plasmodium falciparum; experiment: Antimalarial activity against wild type Plasmodium falciparum 3D7 assessed as growth inhibition; assay type: functional, organism-based; conditions: not given

**Q.** For `CCOC(=O)c1c[nH]c2cc(OCc3ccccc3)ccc2c1=O`, which IC50 is on record?
**A.** Its IC50 is “ND(Insoluble)”.

**Q.** With `CCOC(=O)c1c[nH]c2ccc(OCc3ccccc3)cc2c1=O` as the compound, how does the IC50 read?
**A.** The IC50 was “ND(Insoluble)”.

same assay, conditions: Plasmodium falciparum, 3D7; read-out: IC50

**Q.** With `CCOC(=O)c1c[nH]c2cc(Oc3ccccc3)ccc2c1=O` as the compound, how does the IC50 read?
**A.** Its IC50 is 19.3 nM.

**Q.** Which IC50 does the source give for `CCOC(=O)c1c[nH]c2cc(Cc3ccc(OC(F)(F)F)cc3)ccc2c1=O` here?
**A.** Its IC50 is 0.46 nM.

**Q.** Which IC50 does the source give for `O=c1cc[nH]c2ccc(Oc3ccccc3)cc12` here?
**A.** The IC50 was 4700 nM.

**Q.** With `CC(C)OC(=O)c1c[nH]c2ccc(Oc3ccccc3)cc2c1=O` as the compound, how does the IC50 read?
**A.** Its IC50 is 184 nM.

**Q.** For `CCOC(=O)c1c[nH]c2cc(Cc3ccccc3)ccc2c1=O`, which IC50 is on record?
**A.** The IC50 was 4.57 nM.

**Q.** For `N#Cc1c[nH]c2cc(Oc3ccccc3)ccc2c1=O`, which IC50 is on record?
**A.** Its IC50 is 8100 nM.

**Q.** Which IC50 does the source give for `CCOC(=O)c1c[nH]c2cc(Oc3ccc(OC(F)(F)F)cc3)ccc2c1=O` here?
**A.** The IC50 was 5.3 nM.

**Q.** For `O=c1cc[nH]c2cc(Oc3ccccc3)ccc12`, which IC50 is on record?
**A.** Its IC50 is 6720 nM.

**Q.** Which IC50 does the source give for `CCOC(=O)c1c[nH]c2ccc(Oc3ccc(OC(F)(F)F)cc3)cc2c1=O` here?
**A.** The IC50 was 230 nM.

**Q.** For `O=C(OC1CCCCC1)c1c[nH]c2cc(Oc3ccccc3)ccc2c1=O`, which IC50 is on record?
**A.** Its IC50 is 29.6 nM.

**Q.** Which IC50 does the source give for `CCOC(=O)c1c[nH]c2ccc(OCc3ccc(OC(F)(F)F)cc3)cc2c1=O` here?
**A.** Its IC50 is 675 nM.

**Q.** For `O=C(OC1CCCCC1)c1c[nH]c2ccc(Oc3ccccc3)cc2c1=O`, which IC50 is on record?
**A.** Its IC50 is 1820 nM.

**Q.** With `CCOC(=O)c1c[nH]c2cc(OCc3ccc(OC(F)(F)F)cc3)ccc2c1=O` as the compound, how does the IC50 read?
**A.** The IC50 was 5 nM.

**Q.** With `N#Cc1c[nH]c2ccc(Oc3ccccc3)cc2c1=O` as the compound, how does the IC50 read?
**A.** The IC50 was over 10000 nM.

**Q.** With `CCOC(=O)c1c[nH]c2ccc(Oc3ccccc3)cc2c1=O` as the compound, how does the IC50 read?
**A.** The IC50 was 164 nM.

**Q.** With `CCOC(=O)c1c[nH]c2ccc(Cc3ccccc3)cc2c1=O` as the compound, how does the IC50 read?
**A.** The IC50 was 40.4 nM.

**Q.** Which IC50 does the source give for `CCOC(=O)c1c[nH]c2ccc(Cc3ccc(OC(F)(F)F)cc3)cc2c1=O` here?
**A.** Its IC50 is 142 nM.

**Q.** With `CC(C)OC(=O)c1c[nH]c2cc(Oc3ccccc3)ccc2c1=O` as the compound, how does the IC50 read?
**A.** The IC50 was 8.45 nM.
